Assay results published in patent US10047087B2, “Substituted pyrazolo[1,5-A] pyridine as tropomyosin receptor kinase (TrK) inhibitors” (Dr. Reddy's Laboratories Ltd., priority 2011, dated 2018).

Target: T1, TrkA kinase (Homo sapiens, UniProt P04629)
T1 construct: purchased Upstate, USA
Experiment: In vitro TrkA inhibitory activity using TR-FRET assay
Type: biochemical
Settings: 5 ng TrkA, 500 μM ATP, both bounds given in nm, read-out: TrkA inhibitory activity in-vitro IC50
Description: Determination of In Vitro TrkA Inhibitory Activity Using TR-FRET Assay
Compounds were screened in the TR-FRET assay with TrkA kinase. 5 ng of TrkA [Upstate, USA] kinase was used for assay. The compound was incubated with the kinase for 30 minutes at 20-35° C. After the incubation, substrate mix [40 nM Ultra light poly GT (Perkin Elmer, USA) and 500 μM ATP] was added. The above reaction was stopped by the addition of 40 mM EDTA after 30 minutes. The Eu-labelled antiphospho-tyrosine antibody [Perkin Elmer, USA] was added at 0.5 nM and the fluorescence emission at 615 nm/665 nm [excitation at 340 nm] was measured. The compounds were initially screened at 100 nM, 1 μM and 10 μM concentrations. The potent compounds with >25% inhibition at 1 μM of TrkA were taken for the full dose response studies. The final DMSO concentration in the assay was […]. For IC50 determination, ⅓^rd serial dilution was made from the 20 mM DMSO stock solution. 2 μl of these were transferred to the test wells containing 20 μl reaction mixture [Total reaction volume 22 μl]. The fluorescence was measured in Perkin Elmer Wallac 1420 Multilabel Counter Victor 3. The IC50 was determined by fitting the dose response data to a sigmoidal curve fitting equation using GraphPad Prism software version 5.

T1 sequence (P04629 33-796): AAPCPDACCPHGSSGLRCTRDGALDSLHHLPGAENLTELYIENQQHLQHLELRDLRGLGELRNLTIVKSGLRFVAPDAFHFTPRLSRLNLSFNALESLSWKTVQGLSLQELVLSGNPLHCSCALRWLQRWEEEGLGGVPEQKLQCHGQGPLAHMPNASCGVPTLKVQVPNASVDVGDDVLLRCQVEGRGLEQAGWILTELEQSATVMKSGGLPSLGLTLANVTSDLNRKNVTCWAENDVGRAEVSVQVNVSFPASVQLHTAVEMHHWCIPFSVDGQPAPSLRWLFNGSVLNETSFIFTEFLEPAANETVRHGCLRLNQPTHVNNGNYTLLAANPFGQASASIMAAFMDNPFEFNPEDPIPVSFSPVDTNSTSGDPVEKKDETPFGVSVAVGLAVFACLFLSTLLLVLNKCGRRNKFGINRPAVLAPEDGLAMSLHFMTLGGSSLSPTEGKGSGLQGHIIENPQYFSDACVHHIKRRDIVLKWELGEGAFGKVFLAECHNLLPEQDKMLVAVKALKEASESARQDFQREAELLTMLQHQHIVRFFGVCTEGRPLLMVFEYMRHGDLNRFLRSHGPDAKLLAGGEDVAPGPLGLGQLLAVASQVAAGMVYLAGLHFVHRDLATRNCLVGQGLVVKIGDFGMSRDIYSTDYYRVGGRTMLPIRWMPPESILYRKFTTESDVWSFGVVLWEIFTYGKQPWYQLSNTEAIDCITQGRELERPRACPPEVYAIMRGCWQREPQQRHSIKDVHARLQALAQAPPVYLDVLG

| IC50 | SMILES |
| --- | --- |
| 0.1 to 0.5 µM | CC(C)(C)S(=O)(=O)NC(=O)c1cnn2ccc(N3CC(F)(F)CC3c3cc(F)ccc3F)cc12 (single isomer, unassigned) [Example 56] |
| 0.1 to 0.5 µM | O=C(NS(=O)(=O)C1CC1)c1cnn2ccc(N3CCC[C@@H]3c3cc(F)ccc3F)cc12 [Example 5, (R)-N-(cyclopropylsulfonyl)-5-(2-(2,5-difluorophenyl)pyrrolidin-1-yl)pyrazolo[1,5-a]pyridine-3-carboxamide] |
| 0.1 to 0.5 µM | CS(=O)(=O)NC(=O)c1cnn2ccc(N3CCC[C@@H]3c3cc(F)ccc3F)cc12 [Example 6, (R)-5-(2-(2,5-difluorophenyl)pyrrolidin-1-yl)-N-(methylsulfonyl)pyrazolo[1,5-a]pyridine-3-carboxamide] |
| 0.1 to 0.5 µM | Cc1noc(C)c1S(=O)(=O)NC(=O)c1cnn2ccc(N3CCC[C@@H]3c3cc(F)ccc3F)cc12 [Example 11, (R)-5-(2-(2,5-difluorophenyl)pyrrolidin-1-yl)-N-((3,5-dimethylisoxazol-4-yl)sulfonyl) pyrazolo[1,5-a]pyridine-3-carboxamide] |
| 0.1 to 0.5 µM | O=C(NS(=O)(=O)C1CCCCC1)c1cnn2ccc(N3CCC[C@@H]3c3cc(F)ccc3F)cc12 [Example 12, (R)-N-(cyclohexylsulfonyl)-5-(2-(2,5-difluorophenyl)pyrrolidin-1-yl)pyrazolo[1,5-a] pyridine-3-carboxamide] |
| 0.1 to 0.5 µM | O=C(NS(=O)(=O)C1CCCC1)c1cnn2ccc(N3CCC[C@@H]3c3cc(F)ccc3F)cc12 [Example 13, (R)-N-(cyclopentylsulfonyl)-5-(2-(2,5-difluorophenyl)pyrrolidin-1-yl)pyrazolo[1,5-a] pyridine-3-carboxamide] |
| 0.1 to 0.5 µM | CC(C)CS(=O)(=O)NC(=O)c1cnn2ccc(N3CCC[C@@H]3c3cc(F)ccc3F)cc12 [Example 14, (R)-5-(2-(2,5-difluorophenyl)pyrrolidin-1-yl)-N-(isobutylsulfonyl)pyrazolo[1,5-a] pyridine-3-carboxamide] |
| 0.1 to 0.5 µM | Cn1nccc1S(=O)(=O)NC(=O)c1cnn2ccc(N3CCC[C@@H]3c3cc(F)ccc3F)cc12 [Example 19, (R)-5-(2-(2,5-difluorophenyl)pyrrolidin-1-yl)-N-((1-methyl-1H-pyrazol-5-yl)sulfonyl) pyrazolo[1,5-a]pyridine-3-carboxamide] |
| 0.1 to 0.5 µM | Cc1nc(C)c(S(=O)(=O)NC(=O)c2cnn3ccc(N4CCC[C@@H]4c4cc(F)ccc4F)cc23)s1 [Example 20, (R)-5-(2-(2,5-difluorophenyl)pyrrolidin-1-yl)-N-((2,4-dimethylthiazol-5-yl)sulfonyl) pyrazolo[1,5-a]pyridine-3-carboxamide] |
| 0.1 to 0.5 µM | O=C(NS(=O)(=O)C1CCOCC1)c1cnn2ccc(N3CCC[C@@H]3c3cc(F)ccc3F)cc12 [Example 22, (R)-5-(2-(2,5-difluorophenyl)pyrrolidin-1-yl)-N-((tetrahydro-2H-pyran-4-yl)sulfonyl) pyrazolo[1,5-a]pyridine-3-carboxamide] |
| 0.1 to 0.5 µM | CN(C)c1ccc(S(=O)(=O)NC(=O)c2cnn3ccc(N4CCC[C@@H]4c4cc(F)ccc4F)cc23)cn1 [Example 23, (R)-5-(2-(2,5-difluorophenyl)pyrrolidin-1-yl)-N-((6-(dimethylamino)pyridin-3-yl)sulfonyl)pyrazolo[1,5-a] pyridine-3-carboxamide] |
| 0.1 to 0.5 µM | O=C(NS(=O)(=O)c1ccc(-n2cncn2)nc1)c1cnn2ccc(N3CCC[C@@H]3c3cc(F)ccc3F)cc12 [Example 27, (R)-N-((6-(1H-1,2,4-triazol-1-yl)pyridin-3-yl)sulfonyl)-5-(2-(2,5-difluorophenyl)pyrrolidin-1-yl)pyrazolo[1,5-a]pyridine-3-carboxamide] |
| 0.1 to 0.5 µM | Cn1cc(S(=O)(=O)NC(=O)c2cnn3ccc(N4CCC[C@@H]4c4cc(F)ccc4F)cc23)cn1 [Example 28, (R)-5-(2-(2,5-difluorophenyl)pyrrolidin-1-yl)-N-((1-methyl-1H-pyrazol-4-yl)sulfonyl) pyrazolo[1,5-a]pyridine-3-carboxamide] |
| 0.1 to 0.5 µM | O=C(NS(=O)(=O)c1ccc(N2CCOCC2)cc1)c1cnn2ccc(N3CCC[C@@H]3c3cc(F)ccc3F)cc12 [Example 29, (R)-5-(2-(2,5-difluorophenyl)pyrrolidin-1-yl)-N-((4-morpholinophenyl)sulfonyl) pyrazolo[1,5-a]pyridine-3-carboxamide] |
| 0.1 to 0.5 µM | O=C(NS(=O)(=O)c1cc(Cl)sc1Cl)c1cnn2ccc(N3CCC[C@@H]3c3cc(F)ccc3F)cc12 [Example 32, (R)-N-((2,5-dichlorothiophen-3-yl)sulfonyl)-5-(2-(2,5-difluorophenyl)pyrrolidin-1-yl) pyrazolo[1,5-a]pyridine-3-carboxamide] |
| 0.1 to 0.5 µM | O=C(NS(=O)(=O)C1CCC1)c1cnn2ccc(N3CCC[C@@H]3c3cc(F)ccc3F)cc12 [Example 33, (R)-N-(cyclobutylsulfonyl)-5-(2-(2,5-difluorophenyl)pyrrolidin-1-yl)pyrazolo[1,5-a]pyridine-3-carboxamide] |

Same assay, conditions: 5 ng TrkA, 500 μM ATP, lower bound in nm [sic], upper bound in μM, read-out: TrkA inhibitory activity in-vitro IC50

| IC50 | SMILES |
| --- | --- |
| 0.5 to 1 µM | Cc1nc(S(=O)(=O)NC(=O)c2cnn3ccc(N4CCC[C@@H]4c4cc(F)ccc4F)cc23)cn1C [Example 15, (R)-5-(2-(2,5-difluorophenyl)pyrrolidin-1-yl)-N-((1,2-dimethyl-1H-imidazol-4-yl)sulfonyl)pyrazolo[1,5-a] pyridine-3-carboxamide] |
| 0.5 to 1 µM | CN1C(=O)Cc2cc(S(=O)(=O)NC(=O)c3cnn4ccc(N5CCC[C@@H]5c5cc(F)ccc5F)cc34)ccc21 [Example 21, (R)-5-(2-(2,5-difluorophenyl)pyrrolidin-1-yl)-N-((1-methyl-2-oxoindolin-5-yl)sulfonyl) pyrazolo[1,5-a]pyridine-3-carboxamide] |
| 0.5 to 1 µM | O=C(NS(=O)(=O)c1cccnc1)c1cnn2ccc(N3CCC[C@@H]3c3cc(F)ccc3F)cc12 [Example 30, (R)-5-(2-(2,5-difluorophenyl)pyrrolidin-1-yl)-N-(pyridin-3-ylsulfonyl)pyrazolo[1,5-a]pyridine-3-carboxamide] |

Same assay, conditions: 5 ng TrkA, 500 μM ATP, read-out: TrkA inhibition in-vitro IC50

| IC50 | SMILES |
| --- | --- |
| ≤ 0.05 µM | CC(C)S(=O)(=O)NC(=O)c1cnn2ccc(N3CCC[C@@H]3c3cc(F)ccc3F)cc12 [Example 7, (R)-5-(2-(2,5-difluorophenyl)pyrrolidin-1-yl)-N-(isopropylsulfonyl)pyrazolo[1,5-a] pyridine-3-carboxamide] |
| ≤ 0.05 µM | O=C(NS(=O)(=O)c1ccc(N2CC[C@H](O)C2)cc1)c1cnn2ccc(N3CCC[C@@H]3c3cc(F)ccc3F)cc12 [Example 8, 5-((R)-2-(2,5-difluorophenyl)pyrrolidin-1-yl)-N-((4-((S)-3-hydroxypyrrolidin-1-yl)phenyl)sulfonyl)pyrazolo[1,5-a] pyridine-3-carboxamide] |
| ≤ 0.05 µM | CN(C(=O)c1cnn2ccc(N3CCC[C@@H]3c3cc(F)ccc3F)cc12)S(=O)(=O)c1cccc(C#N)c1 [Example 9, (R)-N-((3-cyanophenyl)sulfonyl)-5-(2-(2,5-difluorophenyl)pyrrolidin-1-yl)-N-methylpyrazolo[1,5-a] pyridine-3-carboxamide] |
| ≤ 0.05 µM | O=C(NS(=O)(=O)c1ccc(Cl)s1)c1cnn2ccc(N3CCC[C@@H]3c3cc(F)ccc3F)cc12 [Example 31, (R)-N-((5-chlorothiophen-2-yl)sulfonyl)-5-(2-(2,5-difluorophenyl)pyrrolidin-1-yl)pyrazolo [1,5-a]pyridine-3-carboxamide] |

Same assay, conditions: 5 ng TrkA, 500 μM ATP, read-out: TrkA inhibitory activity in-vitro IC50

| IC50 | SMILES |
| --- | --- |
| 1 to 10 µM | CC(C)(C)S(=O)(=O)NC(=O)c1cnn2ccc(N3CCCC3c3cc(F)cc4c3OCCO4)cc12 (single isomer, unassigned) [Example 51, N-(tert-butylsulfonyl)-5-(2-(7-fluoro-2,3-dihydrobenzo [b][1,4]dioxin-5-yl)pyrrolidin-1-yl)pyrazolo[1,5-a]pyridine-3-carboxamide] |
| 1 to 10 µM | CC(C)(C)S(=O)(=O)NC(=O)c1cnn2ccc(N3C[C@@H](F)CC3c3cc(F)ccc3F)cc12 (single isomer, unassigned) [Example 53] |
| 1 to 10 µM | CC(C)(C)S(=O)(=O)NC(=O)c1cnn2ccc(N3CC(F)(F)CC3c3cc(F)ccc3F)cc12 (single isomer, unassigned) [Example 55] |
| 1 to 10 µM | Cc1ncc(S(=O)(=O)NC(=O)c2cnn3ccc(N4CCC[C@@H]4c4cc(F)ccc4F)cc23)n1C [Example 16, (R)-5-(2-(2,5-difluorophenyl)pyrrolidin-1-yl)-N-((1,2-dimethyl-1H-imidazol-5-yl)sulfonyl)pyrazolo[1,5-a] pyridine-3-carboxamide] |
| 1 to 10 µM | O=C(NS(=O)(=O)C1CCNCC1)c1cnn2ccc(N3CCC[C@@H]3c3cc(F)ccc3F)cc12 [Example 17, (R)-5-(2-(2,5-difluorophenyl)pyrrolidin-1-yl)-N-(piperidin-4-ylsulfonyl)pyrazolo[1,5-a] pyridine-3-carboxamide] |
| 1 to 10 µM | Cn1cnc(S(=O)(=O)NC(=O)c2cnn3ccc(N4CCC[C@@H]4c4cc(F)ccc4F)cc23)c1 [Example 18, (R)-5-(2-(2,5-difluorophenyl)pyrrolidin-1-yl)-N-((1-methyl-1H-imidazol-4-yl)sulfonyl) pyrazolo[1,5-a]pyridine-3-carboxamide] |
